Our source for the MIC values is paper PMC5506005, “A novel protein kinase inhibitor IMB-YH-8 with anti-tuberculosis activity” (Scientific Reports, 2017).

The experiment deals with clinical isolates of M. tuberculosis. Put plainly: microbe, parasite or virus in culture. It counts as cell-based. Particulars: Mycobacterium tuberculosis.

In brackets after ≈: the same amount, converted by molar mass. Read-outs that look alike come from different tables or passages of the source.

With `COC(=O)/C=C/C(=O)c1ccc(OC)cc1` [IMB-YH-8], the MIC is, setting by setting: (clinical isolate 3303, resistant to INH, STR) 0.5 µg/mL (≈ 2.27 µM); (clinical isolate 4201, resistant to RIF) 0.25 µg/mL (≈ 1.14 µM); (clinical isolate 5112, resistant to INH, RIF, STR, EMB) 0.25 µg/mL (≈ 1.14 µM); (clinical isolate 5116, resistant to INH, RIF) 0.25 µg/mL (≈ 1.14 µM); (clinical isolate 5120, resistant to INH, STR, EMB) 0.5 µg/mL (≈ 2.27 µM); (clinical isolate 6133, resistant to INH, RIF) 0.25 µg/mL (≈ 1.14 µM). Besides, the MIC runs as follows: (clinical isolate 7153, resistant to INH, RIF) 1 µg/mL (≈ 4.54 µM); (clinical isolate 11277, resistant to INH, RIF, STR) 0.5 µg/mL (≈ 2.27 µM); (clinical isolate 12179, resistant to INH, RIF) 0.25 µg/mL (≈ 1.14 µM); (clinical isolate 12251, resistant to INH, RIF) 0.5 µg/mL (≈ 2.27 µM); (clinical isolate 16559, resistant to STR, OFX) 0.5 µg/mL (≈ 2.27 µM); (clinical isolate 20161, resistant to INH, RIF) 0.5 µg/mL (≈ 2.27 µM). Besides, the MIC is, setting by setting: (clinical isolate 23120, resistant to INH, RIF, STR) 0.25 µg/mL (≈ 1.14 µM); (clinical isolate 23443, resistant to RIF) 0.5 µg/mL (≈ 2.27 µM); (read-out: MICs for drug-resistant isolates) 0.25 to 1 µg/mL (≈ 1.14 to 4.54 µM).
